Laboratory results taken from patent publication US20250213587A1, “ITK INHIBITORS FOR INCREASING TH1 CELL ACTIVITY” (Corvus Pharmaceuticals, Inc., priority 2022, published 2025).
Entries after “also recorded” stand apart in the source; their conditions may differ.

Tests used:
ITK = biological target: T1, ITK (Mus musculus, UniProt Q03526); assay: ITK occupancy in mouse splenocytes; type: in vivo; settings: for receptor occupancy at 50 mg/kg: po
T1 construct: from tissue; host or cells: splenocytes of dosed C57Bl/6 mice
T1 sequence (Q03526 1-625): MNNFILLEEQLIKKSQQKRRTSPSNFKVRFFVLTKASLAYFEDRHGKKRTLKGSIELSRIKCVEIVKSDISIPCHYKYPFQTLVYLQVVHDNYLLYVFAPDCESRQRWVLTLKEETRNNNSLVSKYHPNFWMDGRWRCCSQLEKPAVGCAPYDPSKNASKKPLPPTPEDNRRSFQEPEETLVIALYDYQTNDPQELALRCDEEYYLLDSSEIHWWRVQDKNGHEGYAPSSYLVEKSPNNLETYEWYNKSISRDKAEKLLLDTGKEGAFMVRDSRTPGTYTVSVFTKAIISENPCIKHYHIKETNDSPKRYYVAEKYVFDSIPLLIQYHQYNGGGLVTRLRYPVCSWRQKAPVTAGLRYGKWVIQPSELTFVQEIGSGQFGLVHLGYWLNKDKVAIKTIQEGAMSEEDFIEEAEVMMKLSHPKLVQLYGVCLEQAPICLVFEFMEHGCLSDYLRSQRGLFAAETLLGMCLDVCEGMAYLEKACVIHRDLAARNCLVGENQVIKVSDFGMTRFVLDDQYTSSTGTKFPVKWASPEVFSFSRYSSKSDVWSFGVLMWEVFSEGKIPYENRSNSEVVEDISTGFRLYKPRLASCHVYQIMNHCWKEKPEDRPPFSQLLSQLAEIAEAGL
Protocol: The active site occupancy of ITK by a covalent inhibitor was measured using an irreversibly bound biotinylated probe in an immuno-electrochemiluminescence assay. The binding of an inhibitor and the probe to the ATP binding site is mutually exclusive. In lysates of immune cell lines or immune cells collected from treated animals, the biotinylated probe reacts with free (uninhibited) ITK and is subsequently captured on a streptavidin-coated surface and quantified. The free ITK in each sample is normalized by dividing it by either the lysate protein concentration (BCA protein assay, Pierce) or cell count of the sample. Normalized free ITK values are generated for samples collected prior to and after treatment from which occupancy was calculated using equation 7. Single cell suspensions of Jurkat cells, mouse splenocytes, dog PBMC or purified normal human T cells were prepared. Cell lysis was performed using a buffer containing CelLytic M (Sigma Aldrich) supplemented with protease and phosphatase inhibitors (Pierce). The cell pellet resuspended in lysis buffer was incubated at room temperature for 30 minutes when the lysate was clarified by centrifugation at 20,000×g for 5 minutes at 4° C. A solution of the biotinylated probe CP-613 (27.5 nM final, FIG. 14B) was added to the lysate and incubated with mixing for 60 minutes at room temperature. The lysate mixture (35 μL) was transferred in duplicate to separate wells of a blocked streptavidin-coated plate (Mesoscale Diagnostics) then incubated at room temperature with mixing for 60 minutes. The lysate mixture was removed from the plate and the wells were washed with three rounds of PBS/Tween 20 buffer (Thermo Scientific). Rabbit polyclonal anti-ITK antibody solution (Abcam) was dispensed into the wells of the plate and incubated at room temperature with mixing for 60 minutes. The antibody solution was removed from the wells and washed with three rounds of PBS/Tween 20 buffer. Anti-rabbit antibody (goat) sulfo-TAG (Mesoscale Diagnostics) was dispensed into the wells of the plate then incubated at room temperature with mixing for 60 minutes. The antibody solution was removed from the plate and the wells washed with three rounds of PBS/Tween 20 buffer. Read buffer (Mesoscale Diagnostics) diluted two-fold with water was dispensed into the wells of the plate which was read immediately using an MESO Quickplex SQ 120 instrument.
Male C57Bl/6 mice (6-8 weeks of age) were purchased from Charles River Laboratories. […] At scheduled time points mice were euthanized by asphyxiation by CO2 and their spleens were collected immediately and placed into ice cold PBS (N=4/timepoint). All animal procedures were conducted in accordance with a protocol approved by the IACUC committee at Corvus Pharmaceuticals.

ITK Cys-442 = biological target: T2, ITK Cys-442 (Homo sapiens, UniProt Q08881); assay: Mass spectrometry of chymotryptic digest of inhibited ITK; type: binding; settings: LC MS/MS, 5-fold molar excess
T2 construct: The protein construct comprised amino acids 2 to 620 of ITK; purchased Cama Bioscience (so in the source)
Protocol: ITK was obtained as a glutathione S transferase (GST) fusion protein from Cama Bioscience (Product Number 08 081, Lot 13CBS 0356K). The protein was supplied at 586 μg/mL (5.9 μM ITK) in 50 mM TRIS, 150 mM NaCl, 0.05% Brij35, 1 mM dithiothreitol, and 10% glycerol at pH 7.5. The protein construct comprised amino acids 2 to 620 of ITK and is fused to GST at the N terminus of ITK (ITK GST). To prepare the samples for mass spectral analysis, a 2 μM sample of the ITK GST fusion protein was incubated with a 5-fold molar excess of CPI 818 (10 μM). A control, untreated sample of ITK GST was prepared in parallel. […] After the incubation phase, samples were frozen and stored at −80° C. Mass spectral analysis was conducted in collaboration with the Stanford University mass spectrometry facility. The control, untreated ITK GST fusion protein, and the CPI 818 inhibited sample were subjected to chymotrypsin digestion and then analyzed by liquid chromatography coupled with tandem mass spectrometry (LC MS/MS). […] Ions electrosprayed from this column were detected using an Orbitrap Fusion mass spectrometer (Thermo Scientific, San Jose, CA) operated in a data dependent fashion using both ETD and HCD fragmentation to improve detection efficiency of modified peptides. […] Peptides were constrained to 12 ppm mass accuracy for precursor ions, and 0.4 Da mass accuracies for fragment ions detected in the ion trap. […]

[1] = system: Th1, Th17, CD4+ effector cells, eosinophils; assay: Blood and tumor cell changes in treated lymphoma patients; type: in vivo, human
human CD4 T cells = assay: T cell exhaustion markers; type: cell-based

T2 sequence (Q08881 2-620): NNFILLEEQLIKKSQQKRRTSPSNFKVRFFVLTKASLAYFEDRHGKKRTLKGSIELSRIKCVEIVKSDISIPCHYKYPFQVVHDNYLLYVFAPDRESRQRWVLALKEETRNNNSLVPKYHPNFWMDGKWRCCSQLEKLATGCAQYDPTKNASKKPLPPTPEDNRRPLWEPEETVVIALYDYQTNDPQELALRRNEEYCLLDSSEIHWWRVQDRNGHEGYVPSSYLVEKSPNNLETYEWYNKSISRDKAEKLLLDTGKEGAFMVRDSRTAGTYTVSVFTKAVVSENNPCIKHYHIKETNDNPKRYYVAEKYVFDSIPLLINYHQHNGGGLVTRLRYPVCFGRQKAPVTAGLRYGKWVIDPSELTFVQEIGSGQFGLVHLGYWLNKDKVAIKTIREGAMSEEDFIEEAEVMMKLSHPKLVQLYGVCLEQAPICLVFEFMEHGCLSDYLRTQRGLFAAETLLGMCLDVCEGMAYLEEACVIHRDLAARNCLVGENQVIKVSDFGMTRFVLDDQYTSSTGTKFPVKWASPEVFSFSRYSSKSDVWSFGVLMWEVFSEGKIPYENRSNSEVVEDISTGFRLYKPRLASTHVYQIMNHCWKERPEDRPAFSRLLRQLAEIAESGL

SMILES: C=CC(=O)N1CCCN(C(=O)c2cc(Sc3cnc(NC(=O)C4CC4)s3)c(C)cc2OC)C[C@H]1C [CPI-818]
- receptor occupancy at 300 mg/kg/day (ITK; mouse, chow formulation, 300 mg/kg/day): 86 to 95%
- receptor occupancy at 50 mg/kg (ITK; mouse, 50 mg/kg BID PO, 2 h after dosing): 95%
- receptor occupancy at 50 mg/kg (ITK; mouse, 50 mg/kg BID PO, 12 h, prior to second dose): 36%
- receptor occupancy at 50 mg/kg (ITK; mouse, single 50 mg/kg PO, 24 h): 17%
- receptor occupancy at 50 mg/kg (ITK; mouse, single 50 mg/kg PO, first 8 h): 87 to 98%
- ITK occupancy in splenocytes (ITK; single 50 mg/kg PO, first 8 h, 50 mg/kg): > 87%
- ITK occupancy (ITK; single dose, 30 to 120 min): essentially complete ITK occupancy
- covalent modification of ITK peptides (ITK Cys-442): covalently labeling Cys-442
- CD4+ effector cells ([1]; blood and tumor, 200 mg BID): increases
- Th17 pro-inflammatory cells ([1]; lymphoma patient): decrease
- Th1 cells ([1]; lymphoma patient, blood/tumor): increases
- eosinophils ([1]; patient on therapy): decreased while on therapy; also recorded: marked reduction
- T cell exhaustion: granzyme B and IFNγ levels (human CD4 T cells): reverses T cell exhaustion
- LAG3, TIGIT and PD-1 (human CD4 T cells; various concentrations): downregulate biomarkers of T cell exhaustion
